Read-outs that look alike come from different tables or passages of the source.
What was measured:
cloned KCa3.1 channels = settings: cited from earlier work
KCa2.3 = settings: read-out: EC50 KCa2.3 currents; ref Hougaard et al., 2007; cited from earlier work
KCa2.1 = settings: ref Hougaard et al., 2007; cited from earlier work
KCa2.2 = settings: cited from earlier work
KCa2/3 channels = settings: ref Strøbæk et al., 2004; cited from earlier work
hKCa2.3 = hKCa2.3 (Homo sapiens, UniProt Q9UGI6); assay: Whole-cell patch-clamp of KCa2.3 currents; assay type: cell-based
hKCa2.3, sequence (Q9UGI6 whole entry): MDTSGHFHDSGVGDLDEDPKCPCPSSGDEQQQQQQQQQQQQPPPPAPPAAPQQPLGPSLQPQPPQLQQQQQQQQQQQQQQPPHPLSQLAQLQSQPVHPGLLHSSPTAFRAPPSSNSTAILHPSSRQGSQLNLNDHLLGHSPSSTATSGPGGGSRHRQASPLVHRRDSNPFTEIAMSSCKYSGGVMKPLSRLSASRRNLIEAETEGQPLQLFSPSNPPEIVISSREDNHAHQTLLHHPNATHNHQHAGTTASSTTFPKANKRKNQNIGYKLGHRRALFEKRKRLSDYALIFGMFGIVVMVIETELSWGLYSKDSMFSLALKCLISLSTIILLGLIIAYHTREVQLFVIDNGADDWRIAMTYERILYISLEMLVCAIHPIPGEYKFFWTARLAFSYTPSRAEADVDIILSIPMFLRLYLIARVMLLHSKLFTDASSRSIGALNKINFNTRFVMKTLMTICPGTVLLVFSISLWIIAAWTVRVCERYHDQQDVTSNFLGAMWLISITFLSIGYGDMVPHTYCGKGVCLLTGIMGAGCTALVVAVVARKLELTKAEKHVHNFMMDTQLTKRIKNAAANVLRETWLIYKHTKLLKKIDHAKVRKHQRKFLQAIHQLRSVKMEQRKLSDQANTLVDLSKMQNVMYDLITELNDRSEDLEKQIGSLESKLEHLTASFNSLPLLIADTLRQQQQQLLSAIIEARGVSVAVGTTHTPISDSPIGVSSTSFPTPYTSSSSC

## Cc1cc(NC2CCCCC2)nc(-n2nc(C)cc2C)n1 [CyPPA]
Cloned KCa3.1 channels; ref Hougaard et al., 2007
  effect on KCa3.1: no effect
KCa2.3
  EC50: 6 µM
KCa2.1
  effect on KCa2.1: no effect
KCa2.2; read-out: EC50 KCa2.2 currents, ref Hougaard et al., 2007
  EC50: 14 µM

## CCn1c(=O)[nH]c2cc(Cl)c(Cl)cc21 [DCEBIO, 5,6-dichloro-EBIO]
Cloned KCa3.1 channels; read-out: EC50 KCa3.1, ref Singh et al., 2001
  EC50: 0.75 µM
KCa2.2; read-out: EC50 KCa2.2, ref Pedarzani et al., 2001
  EC50: 27 µM

## CCn1c(=O)[nH]c2ccccc21 [EBIO, 1-ethylbenzimidazolin-2-one]
Cloned KCa3.1 channels; read-out: EC50 cloned KCa3.1 channels, ref Wulff et al., 2007
  EC50: 30 µM

## O=C1Nc2c(ccc(Cl)c2Cl)C1=NO [NS309, 6,7-dichloro-1H-indole-2,3-dione 3-oxime]
KCa2/3 channels
  concentrations activating KCa2 and KCa3.1 channels: submicromolar concentrations

## Cl.c1ccc2c(c1)CCC[C@H]2Nc1nc2ccccc2[nH]1 [NS8593, N-[(1R)-1,2,3,4-tetrahydro-1-naphthalenyl]-1H-benzimidazol-2-amine hydrochloride]
hKCa2.3; read-out: IC50 inhibition of KCa2.3 currents, absence of SKA-31
  IC50: 0.7 µM
hKCa2.3; with versus without SKA-31
  shift of IC50 on KCa2.3 by SKA-31: roughly 10 fold

Source: publication PMC2635097 (Molecular pharmacology, 2008)
